In patent publication US10570097B2, “Antimicrobial imidazolium compounds” (AGENCY FOR SCIENCE, TECHNOLOGY AND RESEARCH, priority 2014, dated 2020):

Tests used:
[1] = tested on: rat red blood cells (RBCs); assay: Hemolysis; type: cell-based; details: lowest concentration that induces 10% or more hemolysis; rat RBCs, 1 h, 37° C.; maximum tested 100,000 ppm
Experimental: Before these materials can be used in systemic applications, selectivity of these materials for microbial cells over mammalian cells should also be considered. Such selectivity is often determined by observation of hemolysis. Hemolysis was performed in the following manner, fresh rat red blood cells (RBCs) were diluted with PBS buffer to give an RBC stock suspension (4 vol % blood cells). A 100 μL aliquot of RBC stock was added to a 96-well plate containing […] oligomer compound stock solutions of various concentrations (serial 2-fold dilution in PBS). After 1 h incubation at 37° C., The contents of each well was pipetted into a microcentrifuge tube and then centrifuged at 4000 rpm for 5 min. Hemolytic activity was determined as a function of hemoglobin release by measuring OD576 of […] of the supernatant. A control solution that contained only PBS was used as a reference for 0% hemolysis. 100% hemolysis was measured by adding 0.5% Triton-X to the RBCs. [formula] The selectivity of the materials was also further assessed, by calculating the selectivity indices (SI), a measure and a comparison of safety and efficacies of each oligomer compound. […] Herein, the more stringent control of HC10 value was chosen over the HC50 value often reported in literature.

S. aureus [2] = assay: Minimum inhibitory concentration by microdilution assay; type: cell-based, Staphylococcus aureus (ATCC 6538); details: 37° C., 24 h
Experimental: (§1) Staphylococcus aureus (ATCC 6538, gram-positive), Escherichia coli (ATCC 25922, gram-negative), Pseudomonas aeruginosa (gram-negative), and Candida albicans (ATCC 10231, yeast) were used as representative microorganisms to challenge the antimicrobial functions of the imidazolium salts. All bacteria and yeast were stored frozen at −80° C., and were grown overnight at 37° C. in Tryptic Soy broth (TSB) prior to experiments. Yeast was grown overnight at 22° C. in Yeast Mold (YM) broth. Subsamples of these cultures were grown for 3 h further and diluted to give an optical density value of 0.07 at 600 nm, corresponding to 3×10^8 CFU mL^−1 (MacFarland's Standard).
(§2) The oligomer compounds were dissolved in PBS at a concentration of 1 mg mL^1 and the minimal inhibitory concentrations (MICs) were determined by microdilution assay. Typically, a 100 μL microbial solutions (containing 3×10^8 cells mL^−1) were added to 100 μL of PBS containing the test imidazolium salts (normally ranging from […] in serial two-fold dilutions) in each well of the 96-well microtiter plate. The plates were incubated at 37° C. for 24 h with shaking at 300 rpm, with monitoring at the 2, 4, 6, 8, and 24 h time points. […] Broth and PBS solution containing microbial cells alone were used as negative controls, and experiments were run in triplicates.

E. coli [3] = assay: as above; type: cell-based, Escherichia coli (ATCC 25922); details: E. coli, 37° C., 24 h
Experimental: as §1, §2

S. aureus [4] = assay: Minimum biocidal concentration / killing efficiency (24 h); type: cell-based, Staphylococcus aureus
Experimental: (§3) To determine the minimum bacteriocidal concentration, the microbes were inoculated and prepared according to the procedure for MIC determination. […] The bacterial samples were taken out of each well after the aforementioned period, and subjected to a series of 10-fold dilutions. 20 uL of the diluted sample was then streaked across an agar plate, before incubation of the plate at 37° C. for 24 h. Colony forming units (CFU) were counted after overnight incubation, and the results were calculated according to the formula: [formula]

P. aeruginosa = assay: Minimum inhibitory concentration by microdilution assay; type: cell-based, Pseudomonas aeruginosa; details: 37° C., 24 h
Experimental: as §1, §2

[5] = Gelling properties in solvents (tube inversion test); type: physicochemical
Experimental: Gels were prepared by weighing the imidazolium oligomer compounds directly into 4 mL glass vials and subsequently adding a known weight or volume of the solvent. The vials containing both the imidazolium and the solvent were either vortexed or sonicated to ensure that the imidazolium was dissolved and dispersed thoroughly before being placed in a 4° C. fridge overnight. The tube inversion test method was used to examine gel formation in different solvents.

E. coli [6] = assay: Time kill kinetics; type: cell-based, Escherichia coli; details: two minutes; for % kill / Log reduction: E. coli, 4MIC
Experimental: Time kill studies of the soligome compounds against E. coli were also studied. The experimental setup for time kill kinetics was similar to the set up for MBC determination. The microbes were treated with oligomer compounds at 4MIC concentration, and samples were taken out of each well at 2 minutes. 500 μl of cell suspension was removed, rescued by a series of 10-fold dilutions with growth medium, and kept on ice until plating. For plating, 50 μl to 200 μl of the diluted samples was spread on growth medium agar plates and colonies were counted after overnight incubation at 37° C.

C. Albicans = assay: Minimum inhibitory concentration by microdilution assay; type: cell-based, Candida albicans (ATCC 10231); details: 24 h
Experimental: as §1, §2

[7] = Critical micellar concentration (pyrene fluorescent probe); type: physicochemical; details: FIG. 4, deionized water
Experimental: The CMC values of the oligomer compounds were determined in both deionised (DI) water and PBS, using a LS50B luminescence spectrometer (Perkin Elmer, United States) and employing pyrene as a fluorescent probe. A known weight of the oligomer compound was dissolved in either 2 mL of DI water or PBS in a 4 mL glass vial and serial dilutions were effected. 10 μL of pyrene stock solution in acetone (6.16×10^-5 M) was added to each vial containing 1 mL of a known concentration of the oligomer compound, and the acetone was then evaporated at room temperature. The solution was allowed to equilibrate overnight and the final concentration of pyrene in each vial was 6.16×10^-7 M. The excitation spectra of the solutions were scanned from 300 to 360 nm with an emission wavelength of 395 nm, and both the excitation and emission bandwidths were set at 2.5 nm. The intensity ratios ([…]/[…]) were plotted against polymer concentration. The CMC value was given by the intersection of the tangent to the curve at the inflection and the tangent of the points at low polymer concentrations.

E. coli [8] = assay: Minimum biocidal concentration / killing efficiency (24 h); type: cell-based, Escherichia coli
Experimental: as §3

[9] = tested on: 4 microbes (S. aureus, E. coli, P. aeruginosa, C. Albicans); assay: MIC over the 4 microbes tested (geometric mean); type: cell-based; details: geometric mean of the MICs of the 4 microbes
Experimental: Staphylococcus aureus (ATCC 6538, gram-positive), Escherichia coli (ATCC 25922, gram-negative), Pseudomonas aeruginosa (gram-negative), and Candida albicans (ATCC 10231, yeast) were used as representative microorganisms to challenge the antimicrobial functions of the imidazolium salts. All bacteria and yeast were stored frozen at −80° C., and were grown overnight at 37° C. in Tryptic Soy broth (TSB) prior to experiments. Yeast was grown overnight at 22° C. in Yeast Mold (YM) broth. […] Typically, a 100 μL microbial solutions (containing 3×10^8 cells mL^−1) were added to 100 μL of PBS containing the test imidazolium salts (normally ranging from […] in serial two-fold dilutions) in each well of the 96-well microtiter plate. The plates were incubated at 37° C. for 24 h with shaking at 300 rpm, with monitoring at the 2, 4, 6, 8, and 24 h time points. […] Broth and PBS solution containing microbial cells alone were used as negative controls, and experiments were run in triplicates. The selectivity of the materials was also further assessed, by calculating the selectivity indices (SI), a measure and a comparison of safety and efficacies of each oligomer compound. […] Herein, the more stringent control of HC10 value was chosen over the HC50 value often reported in literature.

Compound	HC10 [1]	MIC S.A. (S. aureus [2])	MIC E. coli (E. coli [3])	% killing (S. aureus [4]; 0.5 MIC)	Log reduction (S. aureus [4]; 0.5 MIC)	% killing (S. aureus [4]; 2 MIC)	Log reduction (S. aureus [4]; 2 MIC)	% killing (S. aureus [4]; MIC)	Log reduction (S. aureus [4]; MIC)	MIC P.A. (P. aeruginosa)	State in solvent ([5]; Acetone)	State in solvent ([5]; Acetonitrile)	Concentration to form gel ([5]; EtOH)	State in solvent ([5]; EtOH)	State in solvent ([5]; Ethylene glycol)	% kill (E. coli [6])	Log reduction (E. coli [6])	MIC C.A. (C. Albicans)	sharp point of inflection indicating the critical micellar concentrations [7]	MIC GM [9]	other results
CCCCCC[n+]1ccn(Cc2ccc(C[n+]3ccn(Cc4ccc(C[n+]5ccn(Cc6ccccc6Cn6cc[n+](Cc7ccc(Cn8cc[n+](Cc9ccc(Cn%10cc[n+](CCCCCC)c%10)cc9)c8)cc7)c6)c5)cc4)c3)cc2)c1.[Br-].[Br-].[Cl-].[Cl-].[Cl-].[Cl-] [Compound 1]	>100000 ppm	4 µg/mL	8 µg/mL	99.975%	3.69 ± 0.335	>99.999%	7.28 ± 0.036	99.999%	5.35 ± 0.094	8 µg/mL	Insoluble	Insoluble	(11 wt %)	Gel	Solution	99.8%	2.85	16 µg/mL	not observed	8 µg/mL	State in solvent ([5]; Glycerol): Solution; Concentration to form gel ([5]; nBuOH): (9.2 wt %); State in solvent ([5]; nBuOH): Gel; Concentration to form gel ([5]; nPrOH): (7.8 wt %); State in solvent ([5]; nPrOH): Gel; % killing (E. coli [8]; 0.5 MIC): 97.692%; Log reduction (E. coli [8]; 0.5 MIC): 1.48 ± 0.212; % killing (E. coli [8]; 2 MIC): >99.999%; Log reduction (E. coli [8]; 2 MIC): 8.40 ± 0.403; % killing (E. coli [8]; MIC): >99.999%; Log reduction (E. coli [8]; MIC): 7.53 ± 0.173
CCCCCCCC[n+]1ccn(Cc2ccc(C[n+]3ccn(Cc4ccc(C[n+]5ccn(Cc6ccccc6Cn6cc[n+](Cc7ccc(Cn8cc[n+](Cc9ccc(Cn%10cc[n+](CCCCCCCC)c%10)cc9)c8)cc7)c6)c5)cc4)c3)cc2)c1.[Br-].[Br-].[Cl-].[Cl-].[Cl-].[Cl-] [Compound 2]	12500 ppm	4 µg/mL	8 µg/mL	98.03%	1.71 ± 0.032	>99.999%	13.38 ± 0.337	>99.999%	11.82 ± 0.067	16 µg/mL	Insoluble	Insoluble	(11 wt %)	Gel	Solution	>99.9%	3.11	16 µg/mL	not observed	9.51 µg/mL	State in solvent ([5]; Glycerol): Solution; Concentration to form gel ([5]; nBuOH): (11.3 wt %); State in solvent ([5]; nBuOH): Gel; Concentration to form gel ([5]; nPrOH): (9.8 wt %); State in solvent ([5]; nPrOH): Gel; % killing (E. coli [8]; 0.5 MIC): 99.779%; Log reduction (E. coli [8]; 0.5 MIC): 2.67 ± 0.128; % killing (E. coli [8]; 2 MIC): >99.999%; Log reduction (E. coli [8]; 2 MIC): 7.19 ± 0.149; % killing (E. coli [8]; MIC): >99.999%; Log reduction (E. coli [8]; MIC): 7.11 ± 0.123
c1ccc(C[n+]2ccn(Cc3ccc(C[n+]4ccn(Cc5ccc(C[n+]6ccn(Cc7ccccc7Cn7cc[n+](Cc8ccc(Cn9cc[n+](Cc%10ccc(Cn%11cc[n+](Cc%12ccccc%12)c%11)cc%10)c9)cc8)c7)c6)cc5)c4)cc3)c2)cc1 [IBN-1, reference compound]	>100000 ppm	3 µg/mL	4 µg/mL	–	–	–	–	–	–	31 µg/mL	–	–	–	–	–	83.33%	0.79	31 µg/mL	not observed	10.36 µg/mL	Gel formation ([5]; any of the solvents): not able to form gels; killing within two minutes (E. coli [6]; E. coli (3×10^8 cells mL^−1), 32 ppm concentration of oligomer compounds): 83%
